The text below walks through data of ChEMBL document CHEMBL5512632, “Unlocking the potential of 1,4-naphthoquinones: A comprehensive review of their anticancer properties” (Eur J Med Chem, 2024).

Series [1] relates to PC-3. Nature of the series: Cytotoxicity against human PC-3 cells by sulforhodamine B staining based spectrophotometric analysis. The class given is functional, cell-based. Background: Sulforhodamine B stains cellular protein and so reports cell mass.
Series [2] has as its system HeLa. Nature of the series: Cytotoxicity against human HeLa cells by sulforhodamine B staining based spectrophotometric analysis. The class given is functional, cell-based.
In series [3] the test system is MCF7. Kind of series: Cytotoxicity against human MCF7 cells by sulforhodamine B staining based spectrophotometric analysis. In kind it is functional, cell-based.
A further series relates to TK-10. Nature of the series: Cytotoxicity against human TK-10 cells by sulforhodamine B staining based spectrophotometric analysis. In kind it is functional, cell-based.
For a further series, the system named is UACC-62. Nature of the series: Cytotoxicity against human UACC-62 cells by sulforhodamine B staining based spectrophotometric analysis. The class given is functional, cell-based.
In series [4] the test system is HepG2. Nature of the series: Cytotoxicity against human HepG2 cells by sulforhodamine B staining based spectrophotometric analysis. In kind it is functional, cell-based.
In another series the test system is OVCAR-5. Kind of series: Cytotoxicity against human OVCAR-5 cells assessed as reduction in cell growth incubated for 24 hrs by DAPI staining based fluorescence imaging analysis. In kind it is functional. The settings on record: OVCAR-5, 24 h.
In series [5] the test system is SK-OV-3. Nature of the series: Cytotoxicity against human SK-OV-3 cells assessed as reduction in cell growth incubated for 24 hrs by DAPI staining based fluorescence imaging analysis. In kind it is functional. The settings on record: SK-OV-3, 24 h.
A short description of series [6]: Antiproliferative activity against human A875 cells assessed as inhibition of cell growth incubated for 24 hrs by MTT reagent based microplate reader assay. The class given is functional. Conditions: A875, 24 h.
Series [7] concerns HeLa. Nature of the series: Cytotoxicity against human HeLa cells incubated for 24 hrs by MTT reagent based microplate reader analysis. The class given is functional, cell-based. (Tetrazolium assays rely on reduction of a dye to a coloured formazan, in cell work by metabolically active cells.)
In a further series the test system is N2a. Kind of series: Cytotoxicity against mouse Neuro2a cells incubated for 24 hrs by MTT reagent based microplate reader analysis. In kind it is functional, cell-based.
Series [8] in a line: Cytotoxicity against mouse JB6 Cl 41-5a cells incubated for 24 hrs by MTT reagent based microplate reader analysis. In kind it is toxicity, cell-based.
Series [9] has as its system PC-3. Kind of series: Cytotoxicity against human PC-3 cells incubated for 72 hrs by MTT reagent based spectrophotometric analysis. The class given is functional, cell-based. The settings on record: PC-3, 72 h.
A further series relates to HL-60. Nature of the series: Cytotoxicity against human HL-60 cells incubated for 72 hrs by MTT reagent based spectrophotometric analysis. The class given is functional, cell-based. The settings on record: HL-60, 72 h.
For a further series, the system named is A2780. Kind of series: Cytotoxicity against human A2780 cells incubated for 72 hrs by MTT reagent based spectrophotometric analysis. The settings on record: A2780, 72 h. In kind it is functional, cell-based.
Series [10] has as its system A549. Nature of the series: Cytotoxicity against human A549 cells incubated for 72 hrs by MTT reagent based spectrophotometric analysis. The class given is functional, cell-based. The settings on record: A549, 72 h.
Series [11] deals with MCF7. Kind of series: Cytotoxicity against human MCF7 cells assessed as inhibition of cell growth incubated for 72 hrs by MTT reagent based colorimetric assay. Conditions: MCF7, 72 h. The class given is functional.
The subject of series [12] is HepG2. Nature of the series: Cytotoxicity against human HepG2 cells assessed as inhibition of cell growth incubated for 72 hrs by MTT reagent based colorimetric assay. The settings on record: HepG2, 72 h. In kind it is functional.
In another series the test system is RPMI-8226. Nature of the series: Cytotoxicity against human RPMI-8226 cells assessed as inhibition of cell growth incubated for 72 hrs by MTT reagent based colorimetric assay. Conditions: RPMI-8226, 72 h. In kind it is functional.
The test system of series [13] is MCF7. Nature of the series: Antiproliferative activity against human MCF7 cells assessed as inhibition of cell growth incubated for 72 hrs by MTS assay. In kind it is functional, cell-based. The settings on record: MCF7, 72 h.
The test system of series [14] is KATO III stomach cancer cell line. Kind of series: Antiproliferative activity against human KATO III stomach cancer cell line assessed as inhibition of cell growth incubated for 72 hrs by MTS assay. In kind it is functional, cell-based.
Series [15] relates to HeLa. Nature of the series: Antiproliferative activity against human HeLa cells assessed as reduction in cell growth incubated for 24 hrs by MTT assay. In kind it is functional, cell-based.
The nature of series [16]: Antiproliferative activity against human SK-RC-45 cells assessed as reduction in cell growth incubated for 24 hrs by MTT assay. In kind it is functional, cell-based. The settings on record: SK-RC-45, 24 h.
For a further series, the system named is Glioblastoma cell line. Nature of the series: Antiproliferative activity against human Glioblastoma cell line assessed as reduction in cell growth incubated for 24 hrs by MTT assay. In kind it is functional, cell-based.
In series [17] the test system is A549. Kind of series: Antiproliferative activity against human A549 cells assessed as reduction in cell growth incubated for 24 hrs by MTT assay. The class given is functional, cell-based. The settings on record: A549, 24 h.
For a further series, the system named is A498. Nature of the series: Antiproliferative activity against human A498 cells assessed as reduction in cell growth incubated for 24 hrs by MTT assay. The class given is functional, cell-based. Conditions: A498, 24 h.
The subject of series [18] is SK-OV-3. Kind of series: Antiproliferative activity against human SK-OV-3 cells assessed as reduction in cell growth incubated for 48 hrs by MTT reagent based microplate reader assay. The class given is functional. The settings on record: SK-OV-3, 48 h.
Series [19] deals with HepG2. Nature of the series: Antiproliferative activity against human HepG2 cells assessed as reduction in cell growth incubated for 48 hrs by MTT reagent based microplate reader assay. The class given is functional. The settings on record: HepG2, 48 h.
The test system of a further series is LNCaP. Kind of series: Antiproliferative activity against human LNCaP cells assessed as reduction in cell growth incubated for 48 hrs by MTT reagent based microplate reader assay. In kind it is functional.
The test system of series [20] is A549. Kind of series: Antiproliferative activity against human A549 cells assessed as reduction in cell growth incubated for 48 hrs by MTT reagent based microplate reader assay. The class given is functional. Conditions: A549, 48 h.
Series [21] relates to MCF7. Nature of the series: Antiproliferative activity against human MCF7 cells assessed as reduction in cell growth incubated for 48 hrs by MTT reagent based microplate reader assay. The class given is functional. The settings on record: MCF7, 48 h.
For series [22], the system named is HeLa. Nature of the series: Cytotoxicity against human HeLa cells incubated for 48 hrs by MTT reagent based spectrophotometric analysis. The class given is functional, cell-based.
For a further series, the system named is Jurkat. Nature of the series: Cytotoxicity against human Jurkat cells incubated for 48 hrs by MTT reagent based spectrophotometric analysis. In kind it is functional, cell-based.
A short description of series [23]: Antiproliferative activity against human TT cells assessed as inhibition of cell growth incubated for 72 hrs by WST-1 assay. In kind it is functional, cell-based.
In another series the test system is U-937. Kind of series: Cytotoxicity against human U-937 cells assessed as reduction in cell viability incubated for 72 hrs by resazurin assay. Conditions: U-937, 72 h. In kind it is functional, cell-based. (In general: The colour change of resazurin is a common sign of viable cells or microbes.)

For orientation: IC50 means the midpoint of a concentration-inhibition curve. Regarding `O=C1C(CSc2ccc(F)cc2)=C(C2=C(CSc3ccc(F)cc3)C(=O)c3ccccc3C2=O)C(=O)c2ccccc21`, the concentration for half-maximal inhibition (IC50) was 6.98 µM in the series with PC-3 [1]; 31.5 µM with HeLa [2]; 3.24 µM in the series with MCF7 [3]; 3.77 µM with TK-10; 2.98 µM with UACC-62; 8.75 µM in the series with HepG2 [4].

On to `COc1cc(/C=C/C(=O)/C=C(O)/C=C/c2ccc(OC3=CC(=O)c4ccccc4C3=O)c(OC)c2)ccc1OC1=CC(=O)c2ccccc2C1=O`, for which the 50% inhibitory concentration (IC50) with OVCAR-5 was 4.05 µM; with SK-OV-3 [5], 5.35 µM.

Consider `CC(C)=CC[C@@H](OC(=O)CCc1cc2ccccc2[nH]1)C1=CC(=O)c2c(O)ccc(O)c2C1=O`, for which, in [6], the IC50 worked out at 0.005 µM.

For `O=C1C2=C(O[C@@H]3[C@@H](O)[C@@H](O)CO[C@H]3S2)C(=O)c2c(O)cccc21`, the figures for the half-maximal inhibitory concentration (IC50) with HeLa [7] and with N2a were 0.4 µM and 1.4 µM, respectively. This compound also yielded a half-maximal inhibitory concentration (IC50) at 24 h in series [8] of 0.7 µM.

`O=C1C=C(C(O)C[N+](=O)[O-])C(=O)c2c(O)ccc(O)c21` (stereo not given): the concentration for half-maximal inhibition (IC50) in the series with PC-3 [9] came out at 0.09 µM; in the series on HL-60, 0.14 µM; in the series on A2780 it was 0.11 µM; with A549 [10] it was 1.05 µM.

`C[P+](C1=C([O-])C(=O)c2c(F)c(F)c(F)c(F)c2C1=O)(c1ccccc1)c1cc(F)cc(F)c1` (stereo not given): the half-maximal inhibitory concentration (IC50) was 4.6 µM with MCF7 [11], 7.1 µM with HepG2 [12] and 6.4 µM in the series with RPMI-8226.

As for `CC(C)=CCCc1ccc2c(c1)C(=O)c1c(cnn1CCO)C2=O`, the IC50 in the series with MCF7 [13] is 27.5 µM; in series [14], 25.5 µM.

In the case of `O=C1C(O)=C(C(C2=C(O)C(=O)c3ccccc3C2=O)c2ccc(C(F)(F)F)cc2)C(=O)c2ccccc21`, the IC50 with HeLa [15] was 34.3 µM; in series [16] it was 30.3 µM; in the series with Glioblastoma cell line, 17.2 µM; in the series with A549 [17] it was 29.6 µM; in the series with A498 it was 27.5 µM.

Turning to `CC1=C(C2CC(=O)N(C)C2=O)C(=O)c2c(O)cccc2C1=O` (stereo not given), the IC50 in the series with SK-OV-3 [18] was determined as 12.2 µM; in the series with HepG2 [19], 7.13 µM; in the series on LNCaP it was 3.62 µM; with A549 [20], 6.11 µM; with MCF7 [21] it was 4.91 µM.

With `COc1ccc(NC2=CC(=O)c3cc4c(cc3C2=O)CCCC4(C)C)cc1`, the IC50 with HeLa [22] was 0.01 µM; in the series with Jurkat, 1.4 µM.

For `CC(C)=CC[C@@H](OC(=O)C=C(C)C)C1=CC(=O)c2c(O)ccc(O)c2C1=O` [DIMETHYLACRYLSHIKONIN], the IC50 in series [23] was 1.2 µM.

For the compound `CC(C)=CC[C@@H](OC(=O)C(C)C)C1=CC(=O)c2c(O)ccc(O)c2C1=O` [ISOBUTYLSHIKONIN], in the series with U-937, the concentration for half-maximal inhibition (IC50) amounted to 0.05 µM.
